Experimental data taken from US4477451A, “5,6-Dihydro-11-methylenemorphanthridin-6-ones, their preparation and drugs containing these compounds” (BASF Aktiengesellschaft, priority 1982, dated 1984).

Test system: gastric ulcers (ulcerous mucosal lesions)
Assay: antiulcerogenic action on the rat (reserpine/indometacin/cold-induced gastric ulcers, oral test substance)
Assay type: in vivo, female Sprague-Dawley rats
Conditions: for ED50: Rattus norvegicus, oral, dose which reduces the ulcerous area by 50%, reserpine 1 mg/kg i.p., indometacin 21.5 mg/kg i.p., 6 hours at 8° C., read-out: Antiulcerogenic action on the rat, ED 50%; for Antiulcerogenic action on the rat, Relative activity: relative to pirenzepine = 1.0
Protocol: To investigate the antiulcerogenic action, 1 mg/kg of reserpine is administered intraperitoneally to groups of 10 female Sprague-Dawley rats each weighing 160-180 g, and the rats then remain without food for 18 hours (water ad libitum). This period is followed by intraperitoneal administration of 21.5 mg/kg of indometacin and oral administration of the test substance to the animals, which are then kept for 6 hours at 8° C., after which they are sacrificed. The stomachs are removed, and the area of ulcerous mucosal lesions is determined. The dose which reduces the ulcerous area by 50%, ie. the ED 50%, is determined from the linear regression between the logarithms of the doses administered and the relative reduction in the area of ulcerations, based on the control animals.
Pirenzepine (5,11-dihydro-11-[(4-methylpiperazin-1-yl)-acetyl]-6H-pyrido[2,3-b][1,4]benzodiazepin-6-one; German Pat. No. 1,795,183) is used as the reference substance.

SMILES | ED50 [mg/kg] | Antiulcerogenic action on the rat, Relative activity
O=C(/C=C1\c2ccccc2NC(=O)c2ccccc21)OCCN1CCOCC1 [Example 1, trans, trans-11-(2-morpholin-1-yl)-ethoxycarbonylmethylene-5,6-dihydromorphanthridin-6-one] | 5.3 | 1.2
CN(C)CCOC(=O)C=C1c2ccccc2NC(=O)c2ccccc21 (mixture of isomers) [Example 2, cis,trans-11-(2-Dimethylamino)-ethoxycarbonylmethylene-5,6-dihydromorphanthridin-6-one] | 0.64 | 10.2
CN1CCN(CC(=O)N2c3ccccc3C(=O)Nc3cccnc32)CC1 [pirenzepine, 5,11-dihydro-11-[(4-methylpiperazin-1-yl)-acetyl]-6H-pyrido[2,3-b][1,4]benzodiazepin-6-one, reference compound] | 6.5 | –
O=C(C=C1c2ccccc2NC(=O)c2ccccc21)OCCCN1CCOCC1 (mixture of isomers) [Example 14, cis,trans-11-(3-Morpholin-1-yl)-propoxycarbonylmethylene-5,6-dihydromorphanthridin-6-one] | 0.83 | 7.8
O=C(/C=C1/c2ccccc2NC(=O)c2ccccc21)OCCN1CCOCC1 [Example 1, cis, cis-11-(2-morpholin-1-yl)-ethoxycarbonylmethylene-5,6-dihydromorphanthridin-6-one] | 1.5 | 4.3
O=C(C=C1c2ccccc2NC(=O)c2ccccc21)OCCN1CCOCC1 (mixture of isomers) [Example 1, cis,trans-11-(2-Morpholin-1-yl)-ethoxycarbonylmethylene-5,6-dihydromorphanthridin-6-one] | 1.9 | 3.4
